Patent publication US7671054B1, “Reverse-turn mimetics and method relating thereto” (Choongwae Pharma Corporation, priority 2001, dated 2010)

Test system: TCF4/β-catenin transcription (TOPFlash) in SW480 cells
Experiment: Reporter gene assay (TOPFlash luciferase)
Type: cell-based
Details: Homo sapiens, SW480, Table 4; Reporter gene assay as described in Example 6; read-out: IC50
Procedure: SW480 cells were transfected with the usage of Superfect™ transfect reagent (Qiagen, 301307). Cells were trypsinized briefly 1 day before transfection and plated on 6 well plate (5×10^5 cells/well) so that they were 50-80% confluent on the day of transfection.
Four microgram (TOPFlash) and one microgram (pRL-null) of DNAs were diluted in 150 μl of serum-free medium, and 30 μl of Superfect™ transfect reagent was added. The DNA-Superfect mixture was incubated at room temperature for 15 min, and then, 1 ml of 10% FBS DMEM was added to this complex for an additional 3 hours of incubation. While complexes were forming, cells were washed with PBS twice without antibiotics.
The DNA-Superfect™ transfect reagent complexes were applied to the cells before incubating at 37° C. at 5% CO2 for 3 hours. After incubation, recovery medium with 10% FBS was added to bring the final volume to 1.18 ml. After 3 hours incubation, the cells were harvested and reseeded to 96 well plate (3×10^4 cells/well). After overnight incubation at 37° C. at 5% CO2, the cells were treated with Compound A for 24 hours. Finally, the activity was checked by means of luciferase assay (Promega, E1960).

| SMILES | IC50 [µM] |
| --- | --- |
| CCCN1CC(=O)N2[C@@H](Cc3ccc(NC=O)cc3)C(=O)N(Cc3ccc(F)cc3F)C[C@@H]2N1C(=O)NCc1ccccc1 [Compound 160] | 10.6 ± 0.5 |
| CN1CC(=O)N2[C@@H](Cc3ccc(O)cc3)C(=O)N(Cc3ccc4cccnc4c3)C[C@@H]2N1C(=O)NCc1ccccc1 [Compound 95] | 13.3 ± 1.4 |
| C=CCN1CC(=O)N2[C@@H](Cc3ccc(OP(=O)(O)O)cc3)C(=O)N(Cc3cccc4scnc34)C[C@@H]2N1C(=O)NCc1ccccc1 [Compound 197] | 0.7 ± 0.2 |
| CN1CC(=O)N2[C@@H](Cc3ccc(O)cc3)C(=O)N(Cc3cccc4cnn(CCN5CCOCC5)c34)C[C@@H]2N1C(=O)NCc1ccccc1 [Compound 94] | 7.6 ± 0.6 |
| Cc1cccc(CN2C[C@H]3N(C(=O)CN(C)N3C(=O)NCc3ccccc3)[C@@H](Cc3ccc(O)cc3)C2=O)c1N(C)C [Compound 48] | 10.9 |
| C#CCn1cc2c(CN3C[C@H]4N(C(=O)CN(C)N4C(=O)NCc4ccccc4)[C@@H](Cc4ccc(O)cc4)C3=O)cccc2n1 [Compound 96] | 8.1 ± 0.9 |
| O=C1[C@H](Cc2ccc(O)cc2)N2C(=O)CON(C(=O)NCc3ccccc3)[C@H]2CN1Cc1cccc2cccnc12 [Compound 119] | 8.8 ± 1.3 |
| CN1CC(=O)N2[C@@H](Cc3ccc(OCC(=O)O)cc3)C(=O)N(Cc3cccc4ccccc34)C[C@@H]2N1C(=O)NCc1ccccc1 [Compound 52] | 25 |
| C=CCN1CC(=O)N2[C@@H](Cc3ccc(O)cc3)C(=O)N(Cc3ccc(OC)cc3)C[C@@H]2N1C(=O)NCc1ccc(Cl)c(Cl)c1 [Compound 215] | 18 ± 5.1 |
| C[C@H](c1ccc(F)c(N(C)C)c1)N1C[C@H]2N(C(=O)CN(C)N2C(=O)NCc2ccccc2)[C@@H](Cc2ccc(O)cc2)C1=O [Compound 59] | 5.3 ± 1.3 |
| CN1CC(=O)N2C(CN(Cc3ccccc3Cl)C(=O)[C@@H]2Cc2ccc(O)cc2)N1C(=O)NCc1ccccc1 (stereo partly drawn) [Compound 17] | 14.3 |
| C=CCN1CC(=O)N2[C@@H](Cc3ccc(O)cc3)C(=O)N(Cc3ccc4c(c3)OCCN4C)C[C@@H]2N1C(=O)NCc1ccccc1 [Compound 147] | 9.4 ± 1 |
| C=CCN1CC(=O)N2[C@@H](Cc3ccc(O)cc3)C(=O)N(Cc3ccc4[nH]nnc4c3)C[C@@H]2N1C(=O)NCc1ccccc1 [Compound 136] | 28 ± 2.9 |
| C=CCN1CC(=O)N2[C@@H](CN([C@H](C)c3ccc(Cl)c4cccnc34)C(=O)[C@@H]2Cc2ccc(O)cc2)N1C(=O)NCc1ccccc1 [Compound 189] | 8.7 ± 0.4 |
| C[C@@H](c1ccc(Cl)c2cccnc12)N1CC2N(C(=O)CN(C)N2C(=O)NCc2ccccc2)[C@@H](Cc2ccc(O)cc2)C1=O (stereo partly drawn) [Compound 196] | 27.4 ± 2.8 |
| CC(C)N(C)c1cc(CN2C[C@H]3N(C(=O)CN(C)N3C(=O)NCc3ccccc3)[C@@H](Cc3ccc(O)cc3)C2=O)ccc1Cl [Compound 54] | 23.6 ± 5.6 |
| CN1CC(=O)N2[C@@H](Cc3ccc(O)cc3)C(=O)N(Cc3ccccc3SC(F)(F)F)C[C@@H]2N1C(=O)NCc1ccccc1 [Compound 31] | 11.9 |
| C=CCN1CC(=O)N2[C@@H](Cc3ccc(O)cc3)C(=O)N(Cc3cccc4c3OCCO4)C[C@@H]2N1C(=O)NCc1ccccc1 [Compound 203] | 0.7 ± 0.1 |
| CN1CC(=O)N2[C@@H](Cc3ccc(O)cc3)C(=O)N(Cc3cccc4occc34)C[C@@H]2N1C(=O)NCc1ccccc1 [Compound 40] | 7 |
| CN1CC(=O)N2[C@@H](CN(Cc3cccc4ccccc34)C(=O)[C@H]2c2ccc(O)cc2)N1C(=O)NCc1ccccc1 [Compound 36] | 12.5 |
| CN(Cc1ccccc1)c1cccc(CN2C[C@H]3N(C(=O)CN(C)N3C(=O)NCc3ccccc3)[C@@H](Cc3ccc(O)cc3)C2=O)c1 [Compound 79] | 16.5 ± 4.8 |
| CN1CC(=O)N2C(CN(Cc3ccc(F)cc3)C(=O)[C@@H]2Cc2ccc(O)cc2)N1C(=O)NCc1ccccc1 (stereo partly drawn) [Compound 10] | 4 |
| C=CCN1CC(=O)N2[C@@H](Cc3ccc(O)cc3)C(=O)N([C@H](C)c3ccccc3)C[C@@H]2N1C(=O)NCc1ccccc1 [Compound 183] | 12.8 ± 0.9 |
| COc1cccc(CN2CC3N(C(=O)CN(C)N3C(=O)NCc3ccccc3)[C@@H](Cc3ccc(O)cc3)C2=O)c1OC (stereo partly drawn) [Compound 23] | 10.7 |
| CN1CC(=O)N2[C@@H](Cc3ccc(O)cc3)C(=O)N(Cc3cccc4c3cnn4CCN3CCOCC3)C[C@@H]2N1C(=O)NCc1ccccc1 [Compound 98] | 14.4 ± 2.2 |

The remaining lines, values ahead:

| IC50 [µM] | SMILES |
| --- | --- |
| 1.2 ± 0.1 | C=CCN1CC(=O)N2[C@@H](Cc3ccc(O)cc3)C(=O)N(Cc3ccc(F)c(F)c3)C[C@@H]2N1C(=O)NCc1ccccc1 [Compound 178] |
| 3 ± 0.4 | CCN1CC(=O)N2[C@@H](Cc3ccc(O)cc3)C(=O)N(Cc3cccc4cccnc34)C[C@@H]2N1C(=O)NCc1ccccc1 [Compound 121] |
| 0.6 ± 0.1 | C=CCN1CC(=O)N2[C@@H](Cc3ccc(O)cc3)C(=O)N(Cc3ccc(Cl)c4cccnc34)C[C@@H]2N1C(=O)NCc1ccccc1 [Compound 137] |
| 1.4 ± 0.7 | C[C@H]1[C@@H]2N(C(=O)CN(C)N2C(=O)NCc2ccccc2)[C@@H](Cc2ccc(O)cc2)C(=O)N1Cc1ccc(F)cc1F [Compound 69] |
| 3.5 ± 0.8 | C=CCN1CC(=O)N2[C@@H](Cc3ccc(O)cc3)C(=O)N(Cc3cccc4c3OCC4)C[C@@H]2N1C(=O)NCc1ccccc1 [Compound 205] |
| 2.2 | CN(C)c1cc(Cl)ccc1CN1C[C@H]2N(C(=O)CN(C)N2C(=O)NCc2ccccc2)[C@@H](Cc2ccc(O)cc2)C1=O [Compound 45] |
| 6.9 ± 1.7 | CC(c1cc(N(C)C)cc(C(F)(F)F)c1)N1C[C@H]2N(C(=O)CN(C)N2C(=O)NCc2ccccc2)[C@@H](Cc2ccc(O)cc2)C1=O (stereo partly drawn) [Compound 60] |
| 0.6 ± 0.04 | C=CCN1CC(=O)N2[C@@H](Cc3ccc(O)cc3)C(=O)N(Cc3cccc4scnc34)C[C@@H]2N1C(=O)NCc1ccccc1 [Compound 182] |
| 3.3 | CN1CC(=O)N2C(CN(Cc3cccc(Cl)c3)C(=O)[C@@H]2Cc2ccc(O)cc2)N1C(=O)NCc1ccccc1 (stereo partly drawn) [Compound 18] |
| 6.7 ± 0.6 | C=CCN1CC(=O)N2[C@@H](CC3(O)C=CC(=O)C=C3)C(=O)N(Cc3ccc(F)cc3F)C[C@@H]2N1C(=O)NCc1ccccc1 [Compound 181] |
| 2.4 ± 0.7 | C#CCN1CC(=O)N2[C@@H](Cc3ccc(O)cc3)C(=O)N(Cc3ccc4c(c3)OCCO4)C[C@@H]2N1C(=O)NCc1ccccc1 [Compound 135] |
| 2.3 | CC(c1ccc(F)cc1)N1C[C@H]2N(C(=O)CN(C)N2C(=O)NCc2ccccc2)[C@@H](Cc2ccc(O)cc2)C1=O (stereo partly drawn) [Compound 37] |
| 1.3 ± 0.3 | C=CCN1CC(=O)N2C(CN(Cc3cccc(N(C)C)c3)C(=O)[C@@H]2Cc2ccc(O)cc2)N1C(=O)NCc1ccccc1 (single isomer, unassigned) [Compound 192] |
| 2.4 ± 0.3 | COC(=O)c1ccccc1Cn1ncc2c(CN3C[C@H]4N(C(=O)CN(C)N4C(=O)NCc4ccccc4)[C@@H](Cc4ccc(O)cc4)C3=O)cccc21 [Compound 99] |
| 4.8 | Cc1cc(C)c(N(C)C)c(CN2C[C@H]3N(C(=O)CN(C)N3C(=O)NCc3ccccc3)[C@@H](Cc3ccc(O)cc3)C2=O)c1 [Compound 51] |
| 3 | CN1CC(=O)N2[C@@H](Cc3ccc(O)cc3)C(=O)N(Cc3ccc(F)c4ccccc34)C[C@@H]2N1C(=O)NCc1ccccc1 [Compound 25] |
| 5.2 | CN(C)c1ccccc1CN1C[C@H]2N(C(=O)CN(C)N2C(=O)NCc2ccccc2)[C@@H](Cc2ccc(O)cc2)C1=O [Compound 43] |
| 0.6 ± 0.2 | C=CCN1CC(=O)N2[C@@H](Cc3ccc(O)cc3)C(=O)N(Cc3cccc(OC)c3OC)C[C@@H]2N1C(=O)NCc1ccccc1 [Compound 214] |
| 2.3 ± 0.2 | C=CCN1CCN2[C@@H](Cc3ccc(O)cc3)C(=O)N(Cc3ccc(OC(F)(F)F)cc3)C[C@@H]2N1C(=O)NCc1ccccc1 [Compound 211] |
| 2.9 ± 0.2 | CN1CC(=O)N2[C@@H](Cc3ccc(O)cc3)C(=O)N(Cc3cccc4cn(Cc5cccc(N)c5)nc34)C[C@@H]2N1C(=O)NCc1ccccc1 [Compound 91] |
| 5.4 ± 1 | C=CCN1CC(=O)N2[C@@H](Cc3ccc(O)cc3)C(=O)N(Cc3cccc4sc(C(=O)OCC)nc34)C[C@@H]2N1C(=O)NCc1ccccc1 [Compound 224] |
| 0.6 ± 0.1 | C=CCN1CC(=O)N2[C@@H](Cc3ccc(O)cc3)C(=O)N(Cc3ccc(F)c4scnc34)C[C@@H]2N1C(=O)NCc1ccccc1 [Compound 223] |
| 1.2 ± 0.1 | C=CCN1CC(=O)N2[C@@H](CN([C@H](C)c3ccccc3)C(=O)[C@@H]2Cc2ccc(O)cc2)N1C(=O)NCc1ccccc1 [Compound 184] |
| 5 | CN1CC(=O)N2[C@@H](Cc3ccc(O)cc3)C(=O)N(Cc3ccc4ccccc4c3)C[C@@H]2N1C(=O)NCc1ccccc1 [Compound 24] |
| 3.9 ± 0.3 | [2H]C([2H])(c1ccc(O)cc1)[C@H]1C(=O)N(Cc2cccc3ccccc23)C[C@H]2N1C(=O)CN(C)N2C(=O)NCc1ccccc1 [Compound 165] |
| 2.6 ± 0.2 | C#CCn1cc2cccc(CN3C[C@H]4N(C(=O)CN(C)N4C(=O)NCc4ccccc4)[C@@H](Cc4ccc(O)cc4)C3=O)c2n1 [Compound 106] |
| 5.3 ± 0.4 | C=CCN1CC(=O)N2[C@@H](Cc3ccc(O)cc3)C(=O)N(Cc3ccc(F)cc3F)[C@@H](C)[C@@H]2N1C(=O)NCc1ccccc1 [Compound 177] |
| 0.8 ± 0.1 | C#CCN1CC(=O)N2[C@@H](Cc3ccc(O)cc3)C(=O)N(Cc3cccc(N4CCOCC4)c3)C[C@@H]2N1C(=O)NCc1ccccc1 [Compound 118] |
| 1.5 ± 0.1 | C=CCN1CC(=O)N2[C@@H](Cc3ccc(O)cc3)C(=O)N(Cc3ccccc3)C[C@@H]2N1C(=O)NCc1ccc(Cl)c(Cl)c1 [Compound 207] |
